Drawing on a melting point compilation (Tetko et al.; mined from patent text by program, amines drawn as free bases though some values may be those of a salt), this text covers melting point for 87 compounds.

For orientation: melting point means the temperature, or range, at which the solid turns liquid.

Consider `c1cn(Cc2ccc3[nH]c(-n4ccnc4)nc3c2)cn1`, for which the melting point came out at 226 °C.
Compound `COC(=O)c1ccccc1S(=O)(=O)NC(=O)c1cnc2c(C)cc(C)nn12` showed a melting point of 210 to 212 °C.
For the compound `CC(C)(C)OC(=O)N1CCN2C[C@H](COc3ccc(F)cc3)CC[C@H]2C1`, the melting point is 90 to 92 °C.
`CN(C)c1ccc(C(=O)c2ccc(O)cc2)cc1`: the melting point lay in the range of 199 to 200 °C.
As for `CCc1nc(SC)c(C(=O)O)n1Cc1ccc(-c2ccccc2S(=O)(=O)NC(=O)NCc2ccccc2)cc1`, the figure is 164 °C.
For the compound `CNc1nn(C(=O)NC(C)CCc2ccccc2Cl)c(=O)n1C` (configuration not stated), the melting point was 133 to 135 °C.
Consider `Cc1ccc(C=C2CSCC3=C2N(CC(F)(F)F)NC3c2ccc(C)cc2)cc1` (configuration not stated), for which the melting point was in the range of 168 to 178 °C.
Then `COc1cccc(-c2nn(-c3ccccc3)c(-c3cccc(OC)c3)c2CC(=O)O)c1`, with 129 to 131 °C; and `CC(C)(C)c1cc(SC2CC(=O)N(c3ccccc3)C2=O)cc(C(C)(C)C)c1O` (configuration not stated), with 134 to 137 °C; and `Cc1cc(C(=O)c2ccc(F)c(C)c2)ccc1F`, with 128 to 130 °C.
As for `Fc1ccc2[nH]c3c4ccccc4nc-3c(Cl)c2c1`, the figure is 208 to 210 °C; as for `Cc1oc(-c2ccccc2)nc1COc1ccc(Cn2cc(CCC(=O)O)c(-c3ccccn3)c2)cc1`, 155 to 156 °C; as for `CCC(NS(=O)(=O)c1ccc(F)cc1)P(=O)(Oc1ccccc1)Oc1ccccc1` (configuration not stated), 148 to 151 °C.
As for `Cn1c(=O)c(-c2c(Cl)cccc2Cl)cc2cnc(Nc3ccc(CC(=O)O)cc3)nc21`, the figure is 286 to 290 °C.
On to `CCC1CCCCN1CCC(=O)N1c2ccccc2NC(=O)c2ccccc21` (configuration not stated), for which the melting point lay within 147 to 148 °C.
For `Cc1[nH]c2ccccc2c1CC(=O)N1CCN(C(c2ccc(F)cc2)c2ccc(F)cc2)CC1`, the melting point lay within 93 to 103 °C.
Then `COc1cc(C(C)C)c2c(c1)S(=O)(=O)N(COc1cc(C#N)nn1-c1ccccc1)C2=O`, with 114 to 116 °C; and `NC(=O)c1ncn(C2OC(CO)C(O)C2O)c1C#Cc1ccccc1` (configuration not stated), with 168 to 169 °C.
Compound `O=C(Cl)c1sc2ccc(Oc3ccccc3)cc2c1Cl` had a melting point of 117 to 119 °C.
Compound `CC(=O)OC[C@H](c1ccccc1)N1C(=O)C=CC1=O` returned a melting point of 131 to 132 °C.
With `O=C1c2c(Cl)cccc2-n2cnc(-c3noc(CN4CCCCC4)n3)c2[C@@H]2CCN12`, the melting point was in the range of 177 to 179 °C.
On to `NC(=O)c1c(Cl)c(-c2ccccc2)n2c1CN(C(=O)Nc1ccc(C(=O)O)cc1)CC2`, for which the melting point was 281 to 283 °C.
Then `NC(Cc1ccccc1)C(O)C(N)Cc1ccccc1` (configuration not stated), with 106 to 107 °C; and `Fc1cccc(Cl)c1-c1nn(-c2ccccc2Cl)c(=S)o1`, with 112 to 114 °C; and `CN(C(=O)Oc1cccc2c1OC(C)(C)C2)C(=O)N1CCCCC1`, with 98 to 100 °C.
In turn, `CN1C=C(S(=O)(=O)C(F)(F)F)C(Cl)(c2ccc(Cl)cc2)C1` (configuration not stated) had a melting point of 117 to 119 °C.
The compound `CC(CNc1ccc(Cl)cc1[N+](=O)[O-])OS(C)(=O)=O` (configuration not stated) came in with a melting point of 106 to 108 °C.
In the case of `CC1CN2C(=O)c3nc[nH]c3N(Cc3ccc(Cl)cc3)C2=N1` (configuration not stated), the melting point is 259 to 260 °C.
Take `CNC(=O)Oc1ccc(N=Cc2ccccc2O)c2c1OC(C)(C)C2`: the melting point was in the range of 201 to 203 °C.
Then `CC(C)(SC(F)(F)F)C(=O)C(Oc1ccc(Cl)cc1)n1cncn1` (configuration not stated), with 66 °C; and `Cc1ccc(Oc2ccccc2-n2cncn2)c(O)c1`, with 132 to 133 °C.
In turn, `Nc1nnc(-c2cc(Cl)cc(Cl)c2Cl)c(N)n1` returned a melting point of 232 to 235 °C.
The compound `Cc1cc(CN2N=C(C(F)(F)C(F)(F)F)NC2(O)C(C)(C)C)ccc1[N+](=O)[O-]` (configuration not stated) gave a melting point of 125 to 128 °C.
Take `Brc1ccc2nc(NC3=NCCN3)[nH]c2c1`: the melting point was in the range of 264 to 266 °C.
With `O=C1O[C@@H](CO)CN1c1ccc2ncccc2c1`, the melting point was determined as 165 °C.
As for `Nc1c(-c2cc(Cl)ccc2O)c2c(Cl)cc(Cl)cc2[nH]c1=O`, the figure is 275 to 277 °C.
`CC(=O)SCC(=O)Nc1ccc(C(=O)NCCO)cc1` showed a melting point of 190 to 192 °C.
As for `COc1ccccc1-c1ccn(C(C)C(=O)N(C)C)n1` (configuration not stated), the figure is 92 to 94 °C; as for `COc1nc(SC)nc(Cl)c1C(=O)NCc1ncccn1`, 176 to 177 °C.
`CCCCc1nc(SC)c(C(=O)OCC)n1Cc1ccc(-c2ccc(S(=O)(=O)NC#N)cc2)cc1` came in with a melting point of 244 °C.
Then `CC(Cc1ccc(OCCCCCCCCCCCO)cc1)NCC(O)c1cccc(C(F)(F)F)c1` (configuration not stated), with 45 to 50 °C; and `COc1ccc2c(C)nnc(Cl)c2c1`, with 151 to 153 °C; and `COc1ccc2[nH]c(C(=O)Nc3ccc(CCCN(C)Cc4ccc(OC)c(OC)c4)cc3)cc2c1`, with 80 °C.
As for `CC(CN1CCCC1)N1c2ccccc2Sc2ccc(C3=NC4CCCCC4N3)cc21` (racemic), the figure is 109 °C.
`OCCCc1conc1-c1ccc(Cl)c(F)c1` displayed a melting point of 54 to 55 °C.
Take `COc1ccc(CN(Cc2ccc(OC)cc2)c2nccc(-c3ccc(-c4ccc(N(c5ccccc5)c5ccccc5)cc4)cc3)n2)cc1`: the melting point fell in the range of 95 to 97 °C.
Then `COc1ccccc1NC(=O)Nc1nc(Nc2ccccc2-c2ccccc2)nc(N(CCC(=O)O)CCc2c[nH]c3ccccc23)n1`, with 115 to 120 °C.
In turn, `CC(C)(C)c1cc(-c2noc(N)n2)cc(C(C)(C)C)c1O` displayed a melting point of 202 to 204 °C.
On to `O=C(O)Cc1ccc(NC(=O)C(COc2ccc(Cl)cc2)NS(=O)(=O)c2ccc(Br)cc2)cc1` (racemic), for which the melting point lay in the range of 218 to 220 °C.
The compound `CNS(=O)(=O)/C=C/c1cc(Cl)cnc1N` registered a melting point of 194 to 198 °C.
Turning to `N#CN1Cc2ccccc2-c2ccccc2C1`, the melting point is 121 to 124 °C.
Then `CCCCNc1cc(C(=O)O)cc(S(N)(=O)=O)c1Oc1ccc(N)cc1`, with 264 °C.
Then `COc1cc(-c2c(Cl)c(CCl)nc3sc4c(c23)CCN(Cc2ccccc2)C4)ccc1OC(C)C`, with 173 to 174 °C; and `Nc1cccc(C(=O)Nc2ccccc2)c1`, with 118 to 120 °C; and `N#Cc1c(NC(=O)CO)cccc1N1CCOCC1`, with 123 to 126 °C.
`NS(=O)(=O)c1ccc(-c2cc(-c3nc(-c4ccc(C(F)(F)F)nc4)cc(C(F)(F)F)n3)ccn2)s1` came in with a melting point of 262 °C.
`CCNC(=O)N1CC(Oc2cccc(C(F)(F)F)c2)C1` returned a melting point of 125 to 126 °C.
For the compound `CSCCC(NC(C)=O)C(=O)N1CC1C#N` (configuration not stated), the melting point lay in the range of 86 to 88 °C.
On to `CCCCc1nc2cccc(C)c2c(=O)n1Cc1ccc(C2(C(=O)O)CC=CC2)s1`, for which the melting point was 150 to 151 °C.
As for `c1ccc(CN2CCC(Nc3cccnc3)CC2)cc1`, the figure is 131 to 133 °C.
As for `CCOC(=O)c1c(CN(C)O)nc2sc3c(c2c1-c1ccc(OC)c(OC)c1)CCN(C(=O)c1ccccc1)C3`, the figure is 129 to 130 °C; as for `COc1cc(OCCCN2CCOCC2)c(C=CC(=O)c2ccc(C(N)=O)cc2)cc1-c1cccs1`, 81 to 83 °C; as for `COc1cccc(C(F)(F)F)c1C(N)=O`, 178 to 181 °C.
Then `O=C(O)c1cn(-c2ccc(F)cc2)c2c(F)c(N3CCCC3)c(F)cc2c1=O`, with 282 to 284 °C; and `O=C1NC[C@H]2CCC[C@H]2O1` (relative stereo), with 56 to 58 °C; and `COc1cc(OC)c(-c2cc3ccccc3n2C)cc1C=CC(=O)c1ccc(S(=O)(=O)Nc2cc(C)on2)cc1`, with 220 °C.
Compound `CC(=O)N1CCCC2(Cc3cc([N+](=O)[O-])ccc3O2)C1` (configuration not stated) showed a melting point of 165 to 167 °C.
Then `Cc1c[nH]c2ccc(O)cc12`, with 116 °C; and `CCCCc1nc2c(N)nc3ccccc3c2n1CCCCNS(C)(=O)=O`, with 195 to 196 °C.
In turn, `CC(C)(C)c1ccc(C(=O)NCc2ccc3c(c2)CN(C2CCC(=O)NC2=O)C3=O)cc1` (configuration not stated) came in with a melting point of 238 to 240 °C.
As for `CCCCCCCCCCCCCCCCCCNC(=O)OCC(CN)COC` (configuration not stated), the figure is 84 to 85 °C.
In turn, `CCCCCCOc1nc(N)nc2c1ncn2C1C=CC(CO)C1` (configuration not stated) displayed a melting point of 90 to 92 °C.
`COCCO[C@@H]1c2ccn3c(-c4ccccc4)c(C)nc3c2N[C@H](c2ccccc2)[C@H]1O`: the melting point was 190 to 192 °C.
As for `C=C(c1ccc(N(C)C)cc1)c1ccc(N2CCCC2)cc1C`, the figure is 90 to 93 °C; as for `FC(F)(F)c1cc(CO[C@H]2CCCN(Cc3nsc(I)n3)[C@H]2c2ccccc2)cc(C(F)(F)F)c1`, 98 to 101 °C.
Then `Cc1ccc2c(c1)C1CN(CCCC#N)CCC1N2` (configuration not stated), with 160 to 165 °C.
Then `CCCCOc1ccc(OCCN2CCN(c3cc(Cl)nnc3Cl)CC2)cc1`, with 135 to 136 °C.
`CC(=O)Nc1nc2c(s1)-c1nn(C(=O)c3ccccc3)cc1CC2` had a melting point of 266 to 267 °C.
Then `Nc1ccc(OC(F)(F)F)c(-c2nc3ccccc3o2)c1`, with 133 to 135 °C; and `O=Cc1ccc2cc(O)ccc2c1`, with 154 to 156 °C.
As for `CNc1nc(-c2ccc(OCc3ccc(Cl)cc3)cc2)cs1`, the figure is 158 to 159 °C; as for `O=C1C[C@@H]2[C@@H](/C=C/C(=O)C3CCCCC3)[C@H](OC(=O)c3ccccc3)C[C@@H]2O1`, 151 to 153 °C.
Then `N#Cc1c(Cl)cccc1C=O`, with 138 to 140 °C; and `O=Cc1cccc(-c2cnco2)n1`, with 151 °C; and `O=C(Nc1ccc(-n2nc(C(F)(F)F)cc2OC(F)F)cc1)c1cccc(F)c1F`, with 154 to 155 °C.
`COc1cc(Cc2cnc(N3C(=O)c4ccccc4C3=O)nc2N)cc(OC)c1OC` came in with a melting point of 221 °C.
For `Nc1cc([N+](=O)[O-])cnc1Nc1ccccc1F`, the melting point is 171 to 172 °C.
